Laboratory results as given in the supplement of paper PMC10307832.

Tests used:
Experiment in all cases: relative viability (nuclei count vs DMSO), 5 days (fraction); higher = more cells survive
Vismodegib + Palbociclib = compound: CS(=O)(=O)c1ccc(C(=O)Nc2ccc(Cl)c(-c3ccccn3)c2)c(Cl)c1 [Vismodegib] + CC(=O)c1c(C)c2cnc(Nc3ccc(N4CCNCC4)cn3)nc2n(C2CCCC2)c1=O [Palbociclib] (partner 0.5 µM)
Outline: (§1)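 Lung cancer cell lines were seeded in 1536-well plates and dosed by pin tool the next day, with either a single drug or a fixed anchor-drug dose combined with five library-drug doses (not always all listed) spaced in √10 steps. Five days later, one step fixed the cells and stained their nuclei (final 0.05% Triton X-100, 1% formaldehyde, 1 ug/ml Hoechst), and nuclei were counted on 4× images. Relative viability is the nuclei count in treated wells divided by the count in vehicle wells, and each value is the median of duplicate plates.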

Ruxolitinib + Vorinostat = compound: N#CC[C@H](C1CCCC1)n1cc(-c2ncnc3[nH]ccc23)cn1 [Ruxolitinib] + O=C(CCCCCCC(=O)Nc1ccccc1)NO [Vorinostat] (partner 1 µM)
Outline: as §1

VE-821 + Crizotinib = compound: CS(=O)(=O)c1ccc(-c2cnc(N)c(C(=O)Nc3ccccc3)n2)cc1 [VE-821] + C[C@@H](Oc1cc(-c2cnn(C3CCNCC3)c2)cnc1N)c1c(Cl)ccc(F)c1Cl [Crizotinib] (partner 1 µM)
Outline: as §1

| Cell Line | relative viability (Vismodegib + Palbociclib; first compound 0.08 µM) | relative viability (Vismodegib + Palbociclib; first compound 0.253 µM) | relative viability (Vismodegib + Palbociclib; first compound 0.8 µM) | relative viability (Vismodegib + Palbociclib; first compound 2.53 µM) | relative viability (Vismodegib + Palbociclib; first compound 8 µM) | relative viability (Ruxolitinib + Vorinostat; first compound 0.08 µM) | relative viability (Ruxolitinib + Vorinostat; first compound 0.253 µM) | relative viability (Ruxolitinib + Vorinostat; first compound 0.8 µM) | relative viability (Ruxolitinib + Vorinostat; first compound 2.53 µM) | relative viability (Ruxolitinib + Vorinostat; first compound 8 µM) | relative viability (VE-821 + Crizotinib; first compound 0.08 µM) | relative viability (VE-821 + Crizotinib; first compound 0.253 µM) | relative viability (VE-821 + Crizotinib; first compound 0.8 µM) | relative viability (VE-821 + Crizotinib; first compound 2.53 µM) | relative viability (VE-821 + Crizotinib; first compound 8 µM) |
| --- | --- | --- | --- | --- | --- | --- | --- | --- | --- | --- | --- | --- | --- | --- | --- |
| NCI-H2342 | 0.517 | 0.699 | 0.472 | 0.574 | 0.483 | 0.82 | 0.706 | 0.833 | 0.724 | 0.823 | – | – | – | – | – |
| SW 900 | 0.641 | 0.514 | 0.634 | – | 0.603 | 0.587 | 0.746 | 0.774 | 0.707 | 0.881 | – | – | – | – | – |
| LOU-NH91 | 0.536 | 0.582 | 0.496 | 0.523 | 0.553 | 0.864 | 0.886 | 0.952 | 0.897 | 0.917 | 0.74 | 0.772 | 0.757 | 0.754 | 0.752 |
| HCC-15 | 0.718 | 0.715 | 0.794 | 0.838 | 0.738 | 0.903 | 0.862 | 0.864 | 0.741 | 0.776 | 0.989 | 0.817 | 0.906 | 0.982 | 0.854 |
| NCI-H1703 | – | – | – | – | – | – | – | – | – | – | 1.04 | 0.578 | 0.688 | 0.336 | 0.248 |
| NCI-H1395 | 0.609 | 0.599 | 0.606 | 0.711 | 0.673 | 0.577 | 0.506 | 0.743 | 0.717 | 0.654 | – | – | – | – | – |
| NCI-H596 | – | – | – | – | – | 0.713 | 0.638 | 0.743 | 0.589 | 0.454 | 0.977 | 1.03 | 0.904 | 1.12 | 0.934 |
| NCI-H1648 | 0.282 | 0.246 | 0.214 | 0.274 | 0.241 | 0.331 | 0.408 | 0.984 | 0.748 | 0.895 | – | – | – | – | – |
| A549 | – | – | – | – | – | – | – | – | – | – | 0.896 | 0.656 | 0.607 | 0.689 | 0.271 |
| NCI-H1563 | – | – | – | – | – | – | – | – | – | – | 1.02 | 0.781 | 0.751 | 0.694 | 0.695 |
| IA-LM | – | – | – | – | – | 0.896 | 1.12 | 1.17 | 0.929 | 1.19 | 1.04 | 0.618 | 0.875 | 1.14 | 0.616 |
| NCI-H522 | 1.16 | 0.985 | 0.894 | 0.923 | 1.03 | 0.949 | 0.868 | 0.978 | 0.873 | 0.859 | – | – | – | – | – |
| EBC-1 | – | – | – | – | – | – | – | – | – | – | 0.181 | 0.189 | 0.155 | 0.179 | 0.202 |
| Calu-6 | – | – | – | – | – | – | – | – | – | – | 0.97 | 0.844 | 0.795 | 0.684 | 0.466 |
| NCI-H1793 | – | 0.295 | 0.345 | 0.321 | 0.422 | 0.832 | 0.87 | 0.823 | 0.877 | 0.872 | – | – | – | – | – |
| NCI-H1792 | 0.668 | 0.639 | 0.653 | 0.644 | 0.673 | – | – | – | – | – | 0.831 | 0.99 | 0.947 | 1.01 | 0.949 |
